In one experiment the target is c-Kit kinase (Homo sapiens (Human), UniProt P10721). As to the kind of experiment: c-Kit biochemical assay (AlphaScreen kinase activity). Here is the method: Assays for biochemical cell-based activity of c-kit kinase are known in the art, for example, as described in U.S. Pat. Nos. 7,498,342 and 7,846,941, the disclosures of which are hereby incorporated by reference as it relates to such assays. The c-kit (or kinase domain thereof) is an active kinase in AlphaScreen. IC50 values are determined with respect to inhibition of c-Kit kinase activity, where inhibition of phosphorylation of a peptide substrate is measured as a function of compound concentration. Compounds to be tested were dissolved in DMSO to a concentration of 30 mM. These were diluted 30 μl into 130 μl of DMSO (4 mM) and 1 μl was added to an assay plate. These were then serially diluted 1:3 (50 μl to 100 μl DMSO) for a total of 8 points. Plates were prepared such that each kinase reaction is 30 μl in 1× kinase buffer (50 mM HEPES, pH 7.2, 5 mM MgCl2, 5 mM MnCl2, 0.01% NP-40, 0.2% BSA), 5% DMSO and 10 μM ATP. Substrate was 100 nM biotin-(E4Y)3 (Open Source Biotech, Inc.). C-kit kinase was at 0.1 ng per sample. After incubation of the kinase reaction for 1 hour at room temperature, 5 μl of donor beads (Streptavidin coated beads (Perkin Elmer Life Science) final concentration 1 μg/ml) in stop buffer (50 mM EDTA in 1× kinase buffer) was added, the sample was mixed and incubated for 30 minutes at room temperature before adding […] of acceptor beads (PY30 coated beads (Perkin Elmer Life Science) final concentration 1 μg/ml) in stop buffer. The samples were incubated for 60 minutes at room temperature and the signal per well was read on AlphaQuest reader. Phosphorylated substrate results in binding of the PY30 antibody and association of the donor and acceptor beads such that signal correlates with kinase activity. The signal vs. compound concentration was used to determine the IC50.
c-Kit kinase, sequence (P10721 26-976): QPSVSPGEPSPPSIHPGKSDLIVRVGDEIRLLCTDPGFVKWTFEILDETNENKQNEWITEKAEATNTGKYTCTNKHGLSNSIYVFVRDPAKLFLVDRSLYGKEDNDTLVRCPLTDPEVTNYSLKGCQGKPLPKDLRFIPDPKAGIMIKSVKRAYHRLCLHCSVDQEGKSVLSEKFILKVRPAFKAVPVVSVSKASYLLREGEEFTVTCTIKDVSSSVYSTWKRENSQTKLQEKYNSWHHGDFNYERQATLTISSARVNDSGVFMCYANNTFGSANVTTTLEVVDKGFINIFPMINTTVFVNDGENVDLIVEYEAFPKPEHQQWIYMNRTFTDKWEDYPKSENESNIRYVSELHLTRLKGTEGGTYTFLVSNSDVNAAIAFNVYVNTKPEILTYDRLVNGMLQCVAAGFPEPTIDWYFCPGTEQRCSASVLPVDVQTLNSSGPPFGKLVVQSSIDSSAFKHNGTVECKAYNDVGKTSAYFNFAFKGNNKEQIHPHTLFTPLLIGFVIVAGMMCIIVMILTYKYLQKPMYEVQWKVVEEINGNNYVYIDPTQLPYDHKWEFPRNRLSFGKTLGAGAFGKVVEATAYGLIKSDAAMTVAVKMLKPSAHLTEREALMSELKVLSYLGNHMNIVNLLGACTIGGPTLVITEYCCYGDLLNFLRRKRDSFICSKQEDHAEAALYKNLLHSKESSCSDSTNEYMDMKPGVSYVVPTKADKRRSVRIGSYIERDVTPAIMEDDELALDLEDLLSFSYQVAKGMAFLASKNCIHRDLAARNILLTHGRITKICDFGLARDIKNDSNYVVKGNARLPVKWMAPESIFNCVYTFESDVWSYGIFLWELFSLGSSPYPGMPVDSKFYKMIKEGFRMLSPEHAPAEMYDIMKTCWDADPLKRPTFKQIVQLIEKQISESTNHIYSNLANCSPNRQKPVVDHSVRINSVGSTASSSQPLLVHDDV
Compounds were also tested using a similar assay with a 10-fold higher ATP concentration. For these samples, compounds to be tested were dissolved in DMSO to a concentration of 30 mM. These were diluted 30 μl into 130 μl of DMSO (4 mM) and 1 μl was added to an assay plate. These were then serially diluted 1:3 (50 μl to 100 μl DMSO) for a total of 8 points. Plates were prepared such that each kinase reaction is 30 μl in 1× kinase buffer (25 mM HEPES, pH 7.5, 2 mM MgCl2, 2 mM MnCl2, 0.01% […], 1 mM DTT, and 0.001% BSA), 5% DMSO and 100 μM ATP. Substrate was 30 nM biotin-(E4Y)10 (Upstate Biotech, Cat#12-440). C-kit kinase was at 1 ng per sample. After incubation of the kinase reaction for 1 hour at room temperature, 5 μl of donor beads (Streptavidin coated beads (Perkin Elmer Life Science) final concentration 10 μg/ml) in stop buffer (25 mM HEPES pH 7.5, 100 mM EDTA, 0.3% BSA) was added, the sample was mixed and incubated for 30 minutes at room temperature before adding 5 μl of acceptor beads (PY30 coated beads (Perkin Elmer Life Science) final concentration 10 μg/ml) in stop buffer. The samples were incubated for 60 minutes at room temperature and the signal per well was read on AlphaQuest or Envision reader (Perkin Elmer Life Science). Phosphorylated substrate results in binding of the PY30 antibody and association of the donor and acceptor beads such that signal correlates with kinase activity. The signal vs. compound concentration was used to determine the IC50.
The c-kit enzyme used in the above assay was either obtained from Cell Signaling Technology (Cat. #7754) or was prepared as follows: A plasmid encoding kit (DNA and encoded protein sequences shown below) was engineered using common polymerase chain reaction (PCR) methods. Complementary DNA cloned from various human tissues were purchased from Invitrogen, and these were used as substrates in the PCR reactions. Specific custom synthetic oligonucleotide primers were designed to initiate the PCR product, and also to provide the appropriate restriction enzyme cleavage sites for ligation with the plasmids. […]
In general terms: Bead proximity is the source of the signal in Alpha formats.

Experiment [1] has as its system BaF3-FL KIT D816V or BaF3-FL KIT V560G/D816V cell line. As to the kind of experiment: Cell-based assays of c-Kit mutant kinase activity (cell proliferation, ATPlite). Particulars: at least one of the c-kit cell assays of Example 7. The protocol:
The c-Kit mutant D816V inhibitors were assessed using an engineered BaF3-FL KIT D816V or BaF3-FL KIT V560G/D816V cell line. The BaF3-FL KIT D816V cell lines were created by introduction of KIT mutant (D816V) full length constructs that render the cells dependent on the introduced kinase for growth. Inhibitors of c-Kit mutant D816V kinase reduce or eliminate the mediated c-kit mutant D816V kinase activation, resulting in reduced cell proliferation of the BaF3-FL Kit mutant D816V cells. This inhibition is measured by the effect of compound concentration on cell growth to assess IC50 values. BaF3-FL KIT D816V cells were seeded at 1×10^4 cells per well of a 96 well cell culture plate in 50 μl of cell culture medium of RPMI Medium 1× (Invitrogen #11875-093) supplemented with 10% FBS (Invitrogen #10438), 1% Non Essential Amino Acids (Invitrogen #11140), 1% Penicillin Streptomycin (Invitrogen #15140), 1% L-Glutamine (Invitrogen #25030-081). Compounds were dissolved in DMSO at a concentration of 5 mM and were serially diluted 1:3 for a total of eight points and added to the cells to a final maximum concentration of 10 μM in 100 μl cell culture medium (final concentration 0.2% DMSO). Cells were also treated with Dasatinib as a positive control. The cells were incubated at 37° C., 5% CO2 for three days. ATPlite Buffer (Perkin Elmer #6016739) and substrate were equilibrated to room temperature, and enzyme/substrate Recombinant Firefly Luciferase/D-Luciferin was reconstituted. The cell plates were equilibrated to room temperature for 30 minutes, then lysed by addition of 25 μL per well of the ATPlite Reagent. The plate was mixed for 5 minutes on a plate shaker to lyse the cells. The plates were read on a Tecan Safire using Luminescence protocol modified to read 0.1s per well. The luminescence reading assesses the ATP content, which correlates directly with cell number such that the reading as a function of compound concentration is used to determine the IC50 value.
Plasmids P75635 and P75565 were engineered for mammalian cell expression. In both plasmids, full-length human v-kit Hardy-Zuckerman 4 feline sarcoma viral oncogene homolog gene (NCBI accession NM_000222, KIT, residues M1-V976) was subcloned into the pCI-Neo vector (Promega E1841). Plasmid P75635 contains the mutation of residue Aspartic acid 816 to Valine. Plasmid P75565 contains the double mutation of residues Valine 560 to Glycine and Aspartic acid 816 to Valine. The pCI-neo Mammalian Expression Vector carries the human cytomegalovirus (CMV) immediate-early enhancer/promoter region to promote constitutive expression of KIT and contains the neomycin phosphotransferase gene, a selectable marker.
It is understood that the results of these assays may vary as assay conditions are varied. Inhibition levels determined under the conditions described herein represent a relative activity for the compounds tested under the specific conditions employed. The cell based assays are likely to show variability due to the complexity of the system and the sensitivity thereof to any changes in the assay conditions. […] In some instances, the compounds were not tested in all of the assays, or assay results were not valid.

The target of the next experiment is c-kit mutant D816V (Homo sapiens (Human), UniProt P10721, D816V/DEL694-753). The experiment can be described thus: c-Kit mutant D816V biochemical assay (AlphaScreen kinase activity). Here is the method:
The c-kit mutant D816V (or kinase domain thereof) is an active kinase in AlphaScreen. IC50 values are determined with respect to inhibition of c-Kit mutant D816V kinase activity, where inhibition of phosphorylation of a peptide substrate is measured as a function of compound concentration. Compounds to be tested were dissolved in DMSO to a concentration of 30 mM. These were diluted […] of DMSO (4 mM) and 1 μl was added to an assay plate. These were then serially diluted 1:3 (50 μl to […] DMSO) for a total of 8 points. Plates were prepared such that each kinase reaction is […] in 1× kinase buffer (25 mM HEPES, pH 7.2, 8 mM MgCl2, 2 mM MnCl2, 50 mM NaCl, 0.01% Brij, 1 mM DTT, 0.01% BSA), 5% DMSO and 10 μM ATP. Substrate was 30 nM biotin-(E4Y)10 (EMD Millipore, Cat#12-440). C-kit mutant D816V kinase was at 0.75 ng per sample. After incubation of the kinase reaction for 30 minutes at room temperature, 5 μl of donor beads (Streptavidin coated beads (Perkin Elmer Life Science) final concentration 7.5 μg/ml) in stop buffer (25 mM Hepes pH 7.5, 100 mM EDTA, 0.01% BSA) was added, the sample was mixed and incubated for 30 minutes at room temperature before adding […] of acceptor beads (PY30 coated beads (Perkin Elmer Life Science) final concentration 7.5 μg/ml) in stop buffer. The samples were incubated for 60 minutes at room temperature and the signal per well was read on EnVision reader. Phosphorylated substrate results in binding of the PY30 antibody and association of the donor and acceptor beads such that signal correlates with kinase activity. The signal vs. compound concentration was used to determine the IC50.
Recombinant c-kit mutant D816V (residues 551-934, kinase insertion domain residues 694-753 deleted) with a 6×-histidine N-terminal tag (SEQ ID NO: 3) was expressed in E. coli Arctic Express (DE3) RIL (Stratagene). Cells were grown in Terrific Broth (TB) media to an OD600 of 0.6 at 37° C. at which temperature was reduced to 10° C., protein was induced with 1.0 mM IPTG for 18 hours and harvested by centrifugation at 8000×g for 30 minutes. Cells were re-suspended in 0.1M KPO4 pH 8.0, 250 mM NaCl, 10% Glycerol, 0.75% NP-40, 25 mM Imidazole, 5 mM BME with 0.2 mg/ml Lysosyme, 2.0 mM PMSF, 25 μg/ml DNAse I, incubated in ice for 30 minutes and lyzed with a cell disruptor (MicroFluidics). The lysate was clarified by centrifugation at 30,000×g for 2 hours. The protein was captured with Talon resin (Clontech). Contaminating proteins were washed off with 25 mM Tris-HCl pH 8.3, 250 mM NaCl, 15% Glycerol, 1% Triton X-100, and protein eluted using 100 mM EDTA. The protein was further purified using Gel Filtration column 26/600 Superdex 300 (GE) in 50 mM Tris-HCl , pH 8.0, 250 mM NaCl, 15% Glycerol, 5 mM BME. The protein was aliquoted and flash-frozen in liquid Nitrogen.

c-kit mutant D816V, sequence (P10721 other isoform, or with tags, fused parts or gaps D816V/del 694-753): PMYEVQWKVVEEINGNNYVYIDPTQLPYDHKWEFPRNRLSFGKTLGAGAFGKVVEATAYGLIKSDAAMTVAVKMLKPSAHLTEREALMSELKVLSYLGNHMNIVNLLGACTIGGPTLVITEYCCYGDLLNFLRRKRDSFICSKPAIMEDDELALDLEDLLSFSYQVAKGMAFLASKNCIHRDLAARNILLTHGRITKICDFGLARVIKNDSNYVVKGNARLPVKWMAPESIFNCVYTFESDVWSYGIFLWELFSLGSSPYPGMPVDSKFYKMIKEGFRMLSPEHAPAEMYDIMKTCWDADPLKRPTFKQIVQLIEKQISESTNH

As usually defined, the IC50 is the midpoint of a concentration-inhibition curve. A lower IC50 goes with higher potency. For the compound `Cc1[nH]c(C2CCN(c3ncnc4[nH]c(-c5ccncc5)cc34)CC2)nc1-c1ccccc1` [P-3001, 4-[4-(5-methyl-4-phenyl-1H-imidazol-2-yl)-1-piperidyl]-6-(4-pyridyl)-7H-pyrrolo[2,3-d]pyrimidine], the results for the IC50 (against c-Kit kinase; in experiment [1]) were 0.0001 to 1 µM and under 10000 nM, respectively.
With `Cc1nc(C2CCN(c3ncnc4[nH]c(-c5cccc(Cl)c5)cc34)CC2)[nH]c1-c1ccccc1` [P-3082, 6-(3-chlorophenyl)-4-[4-(4-methyl-5-phenyl-1H-imidazol-2-yl)-1-piperidyl]-7H-pyrrolo[2,3-d]pyrimidine], the IC50 in experiment [1] is under 10000 nM; against c-kit mutant D816V, 0.0001 to 1 µM.
Consider `COc1cc(-c2[nH]c(C3CCN(c4ncnc5[nH]c(-c6ccc(F)cc6)cc45)CC3)nc2C)ccc1C` [P-3103, 6-(4-fluorophenyl)-4-[4-[5-(3-methoxy-4-methyl-phenyl)-4-methyl-1H-imidazol-2-yl]-1-piperidyl]-7H-pyrrolo[2,3-d]pyrimidine], for which the IC50 was in the range of 1 to 10 µM on c-Kit kinase and 0.0001 to 1 µM at c-kit mutant D816V.
For `COc1ccc(-c2[nH]c(C3CCN(c4ncnc5[nH]c(-c6ccc(F)cc6)cc45)CC3)nc2C(F)(F)F)cc1` [P-3147, 6-(4-fluorophenyl)-4-[4-[5-(4-methoxyphenyl)-4-(trifluoromethyl)-1H-imidazol-2-yl]-1-piperidyl]-7H-pyrrolo[2,3-d]pyrimidine], the IC50 was under 10000 nM in experiment [1] and 0.0001 to 1 µM at c-kit mutant D816V.
For `Cc1cc2c(N3CCC(C)(c4nc(C)c(-c5ccc(Cl)cc5)[nH]4)CC3)ncnc2[nH]1` [P-3174, 4-[4-[5-(4-chlorophenyl)-4-methyl-1H-imidazol-2-yl]-4-methyl-1-piperidyl]-6-methyl-7H-pyrrolo[2,3-d]pyrimidine], the IC50 in experiment [1] was under 10000 nM; against c-kit mutant D816V it was 0.0001 to 1 µM.

The record behind these values is patent US9771369B2, “Compounds and methods for kinase modulation, and indications therefor” (Plexxikon Inc., priority 2014, dated 2017).
